Experimental data: ChEMBL document CHEMBL1629708, “Discovery of dihydrothieno- and dihydrofuropyrimidines as potent pan Akt inhibitors” (Bioorg Med Chem Lett, 2010)

Target: T1, RAC-alpha serine/threonine-protein kinase (Homo sapiens, UniProt P31749)
Assay: Inhibition of Akt1
Settings: not given; call rule not given here

T1 sequence (P31749 whole entry): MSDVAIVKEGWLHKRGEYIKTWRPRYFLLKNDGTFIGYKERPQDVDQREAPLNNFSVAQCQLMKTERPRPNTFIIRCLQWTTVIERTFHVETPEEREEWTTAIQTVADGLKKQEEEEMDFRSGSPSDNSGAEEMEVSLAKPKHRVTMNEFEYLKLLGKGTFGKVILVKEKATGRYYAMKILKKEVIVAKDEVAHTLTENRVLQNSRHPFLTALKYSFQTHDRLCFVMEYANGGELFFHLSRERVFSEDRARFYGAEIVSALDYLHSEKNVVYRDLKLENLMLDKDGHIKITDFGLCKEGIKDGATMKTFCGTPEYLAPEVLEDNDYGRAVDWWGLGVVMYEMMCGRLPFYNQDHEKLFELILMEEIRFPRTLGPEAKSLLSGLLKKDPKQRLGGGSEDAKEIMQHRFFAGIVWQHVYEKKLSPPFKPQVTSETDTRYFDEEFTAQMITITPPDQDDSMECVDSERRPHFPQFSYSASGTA

Row | SMILES | IC50 [nM]
1 | CC(C)NCC(Cc1ccc(F)c(F)c1)C(=O)N1CCN(c2ncnc3c2[C@H](C)SC3)CC1 (some centres undefined) | 10
2 | C[C@@H]1SCc2ncnc(N3CCN(C(=O)[C@H](N)Cc4ccc(F)cc4)CC3)c21 | 11
3 | C[C@@H]1SCc2ncnc(N3CCN(C(=O)C(Cc4ccc(Cl)cc4)C4(N)CC4)CC3)c21 (some centres undefined) | 42
4 | C[C@@H]1SCc2ncnc(N3CCN(C(=O)[C@H](N)Cc4ccc(F)c(F)c4)CC3)c21 | 4

Second part, the molecule after the results:

Row | IC50 [nM] | SMILES
5 | 18 | C[C@@H]1OCc2ncnc(N3CCN(C(=O)C(Cc4ccc(Cl)c(F)c4)CC(C)(C)N)CC3)c21 (some centres undefined)
6 | 7 | C[C@@H]1SCc2ncnc(N3CCN(C(=O)C(Cc4ccc(Cl)c(F)c4)CC(C)(C)N)CC3)c21 (some centres undefined)
7 | 6 | C[C@@H]1SCc2ncnc(N3CCN(C(=O)C(Cc4ccc(Cl)cc4)CC(C)(C)N)CC3)c21 (some centres undefined)
8 | 3 | Cc1ccc(CC(CNC(C)C)C(=O)N2CCN(c3ncnc4c3[C@H](C)SC4)CC2)cc1 (some centres undefined)
9 | 3 | C[C@@H]1SCc2ncnc(N3CCN(C(=O)C(Cc4ccc(Cl)cc4)CN4CCCC4)CC3)c21 (some centres undefined)
10 | 2 | C[C@@H]1SCc2ncnc(N3CCN(C(=O)[C@H](N)Cc4ccc(Cl)c(F)c4)CC3)c21
11 | 1 | CC(C)NC[C@H](Cc1ccc(Cl)cc1)C(=O)N1CCN(c2ncnc3c2[C@H](C)SC3)CC1

Tested on: not listed separately
Assay: Inhibition of PKA
Settings: not given

Row | SMILES | IC50 [nM]
12 | CC(C)NCC(Cc1ccc(F)c(F)c1)C(=O)N1CCN(c2ncnc3c2[C@H](C)SC3)CC1 (some centres undefined) | 285
13 | C[C@@H]1SCc2ncnc(N3CCN(C(=O)[C@H](N)Cc4ccc(F)cc4)CC3)c21 | 104
14 | C[C@@H]1SCc2ncnc(N3CCN(C(=O)C(Cc4ccc(Cl)cc4)C4(N)CC4)CC3)c21 (some centres undefined) | 308
15 | C[C@@H]1SCc2ncnc(N3CCN(C(=O)[C@H](N)Cc4ccc(F)c(F)c4)CC3)c21 | 30

Further lines, results first:

Row | IC50 [nM] | SMILES
16 | 91 | C[C@@H]1OCc2ncnc(N3CCN(C(=O)C(Cc4ccc(Cl)c(F)c4)CC(C)(C)N)CC3)c21 (some centres undefined)
17 | 63 | C[C@@H]1SCc2ncnc(N3CCN(C(=O)C(Cc4ccc(Cl)c(F)c4)CC(C)(C)N)CC3)c21 (some centres undefined)
18 | 73 | C[C@@H]1SCc2ncnc(N3CCN(C(=O)C(Cc4ccc(Cl)cc4)CC(C)(C)N)CC3)c21 (some centres undefined)
19 | 101 | Cc1ccc(CC(CNC(C)C)C(=O)N2CCN(c3ncnc4c3[C@H](C)SC4)CC2)cc1 (some centres undefined)
20 | 75 | C[C@@H]1SCc2ncnc(N3CCN(C(=O)C(Cc4ccc(Cl)cc4)CN4CCCC4)CC3)c21 (some centres undefined)
21 | 8 | C[C@@H]1SCc2ncnc(N3CCN(C(=O)[C@H](N)Cc4ccc(Cl)c(F)c4)CC3)c21
22 | 6 | Cc1c[nH]c2ncnc(N3CCN(C(=O)[C@H](N)Cc4ccc(F)cc4)CC3)c12
23 | 35 | CC(C)NC[C@H](Cc1ccc(Cl)cc1)C(=O)N1CCN(c2ncnc3c2[C@H](C)SC3)CC1

Target: T1, RAC-alpha serine/threonine-protein kinase
Assay: Inhibition of Akt in human LNCaP cell assessed as inhibition of PRAS40 phosphorylation
Assay type: cell-based
Settings: not given

Row | SMILES | IC50 [nM]
24 | C[C@@H]1SCc2ncnc(N3CCN(C(=O)[C@H](N)Cc4c[nH]c5ccccc45)CC3)c21 | 3630
25 | CC(C)NCC(Cc1ccc(F)c(F)c1)C(=O)N1CCN(c2ncnc3c2[C@H](C)SC3)CC1 (some centres undefined) | 759
26 | C[C@@H]1SCc2ncnc(N3CCN(C(=O)[C@H](N)Cc4ccc(F)cc4)CC3)c21 | 1590
27 | C[C@@H]1SCc2ncnc(N3CCN(C(=O)C(Cc4ccc(Cl)cc4)C4(N)CC4)CC3)c21 (some centres undefined) | 2470
28 | C[C@@H]1SCc2ncnc(N3CCN(C(=O)[C@H](N)Cc4ccc(F)c(F)c4)CC3)c21 | 602

The next lines start with the values.

Row | IC50 [nM] | SMILES
29 | 592 | C[C@@H]1OCc2ncnc(N3CCN(C(=O)C(Cc4ccc(Cl)c(F)c4)CC(C)(C)N)CC3)c21 (some centres undefined)
30 | 587 | C[C@@H]1SCc2ncnc(N3CCN(C(=O)C(Cc4ccc(Cl)c(F)c4)CC(C)(C)N)CC3)c21 (some centres undefined)
31 | 438 | C[C@@H]1SCc2ncnc(N3CCN(C(=O)C(Cc4ccc(Cl)cc4)CC(C)(C)N)CC3)c21 (some centres undefined)
32 | 216 | Cc1ccc(CC(CNC(C)C)C(=O)N2CCN(c3ncnc4c3[C@H](C)SC4)CC2)cc1 (some centres undefined)
33 | 178 | C[C@@H]1SCc2ncnc(N3CCN(C(=O)C(Cc4ccc(Cl)cc4)CN4CCCC4)CC3)c21 (some centres undefined)
34 | 176 | C[C@@H]1SCc2ncnc(N3CCN(C(=O)[C@H](N)Cc4ccc(Cl)c(F)c4)CC3)c21
35 | 160 | Cc1c[nH]c2ncnc(N3CCN(C(=O)[C@H](N)Cc4ccc(F)cc4)CC3)c12
36 | 137 | CC(C)NC[C@H](Cc1ccc(Cl)cc1)C(=O)N1CCN(c2ncnc3c2[C@H](C)SC3)CC1

Tested on: not listed separately
Assay: Clearance in rat at 5 mg/kg, iv
Assay type: ADME, organism-based
Design: dose 5 mg/kg, route intravenous
Settings: in vivo

Row | clearance [mL/min/kg] | SMILES
37 | 94 | CC(C)NC[C@H](Cc1ccc(Cl)cc1)C(=O)N1CCN(c2ncnc3c2[C@H](C)SC3)CC1

Tested on: not listed separately
Assay: Bioavailability in rat at 50 mg/kg, po
Assay type: ADME, organism-based
Settings: in vivo

Row | bioavailability [%] | SMILES
38 | > 100 | CC(C)NC[C@H](Cc1ccc(Cl)cc1)C(=O)N1CCN(c2ncnc3c2[C@H](C)SC3)CC1

Tested on: not listed separately
Assay: Plasma concentration in rat at 50 mg/kg, po
Assay type: ADME, organism-based
Design: dose 50 mg/kg, route oral
Settings: not given

Row | AUC [ng·h/mL] | SMILES
39 | 56200 | CC(C)NC[C@H](Cc1ccc(Cl)cc1)C(=O)N1CCN(c2ncnc3c2[C@H](C)SC3)CC1

Tested on: not listed separately
Assay: Plasma protein binding in rat
Assay type: ADME, cell-free
Settings: read-out: PPB (converted)

Row | fraction unbound | SMILES
40 | 0.3 | CC(C)NC[C@H](Cc1ccc(Cl)cc1)C(=O)N1CCN(c2ncnc3c2[C@H](C)SC3)CC1

Tested on: Plasma
Assay: Increase in plasma drug level in nude mouse xenografted with human U87 cells at 50 to 100 mg/kg, po after 1 hr
Assay type: ADME, organism-based, U-87MG ATCC
Design: dose 50-100 mg/kg, route oral
Settings: in vivo

Row | Activity | SMILES
41 | Active | CC(C)NC[C@H](Cc1ccc(Cl)cc1)C(=O)N1CCN(c2ncnc3c2[C@H](C)SC3)CC1

Tested on: Plasma
Assay: Increase in plasma drug level in nude mouse xenografted with human U87 cells at 200 mg/kg, po after 1 hr
Assay type: ADME, organism-based, U-87MG ATCC
Design: dose 200 mg/kg, route oral
Settings: in vivo

Row | Activity | SMILES
42 | Active | CC(C)NC[C@H](Cc1ccc(Cl)cc1)C(=O)N1CCN(c2ncnc3c2[C@H](C)SC3)CC1

Tested on: not listed separately
Assay: Inhibition of PRAS40 phosphorylation in human U87 cells xenografted in mouse at 50 mg/kg, po after 1 hr
Assay type: functional, U-87MG ATCC
Settings: U-87 MG

Row | SMILES | inhibition in vivo at 50 mg/kg [%]
43 | CC(C)NC[C@H](Cc1ccc(Cl)cc1)C(=O)N1CCN(c2ncnc3c2[C@H](C)SC3)CC1 | 85

Tested on: not listed separately
Assay: Inhibition of PRAS40 phosphorylation in human U87 cells xenografted in mouse at 50 mg/kg, po after 4 hr
Assay type: functional, U-87MG ATCC
Settings: U-87 MG

Row | SMILES | inhibition in vivo at 50 mg/kg [%]
44 | CC(C)NC[C@H](Cc1ccc(Cl)cc1)C(=O)N1CCN(c2ncnc3c2[C@H](C)SC3)CC1 | 60

Tested on: not listed separately
Assay: Inhibition of PRAS40 phosphorylation in human U87 cells xenografted in mouse at 200 mg/kg, po after 4 hrs
Assay type: functional, U-87MG ATCC
Settings: U-87 MG

Row | SMILES | inhibition in vivo at 200 mg/kg [%]
45 | CC(C)NC[C@H](Cc1ccc(Cl)cc1)C(=O)N1CCN(c2ncnc3c2[C@H](C)SC3)CC1 | 83

Tested on: not listed separately
Assay: Inhibition of PRAS40 phosphorylation in human U87 cells xenografted in mouse at 200 mg/kg, po after 12 hrs
Assay type: functional, U-87MG ATCC
Settings: U-87 MG

Row | SMILES | inhibition in vivo at 200 mg/kg [%]
46 | CC(C)NC[C@H](Cc1ccc(Cl)cc1)C(=O)N1CCN(c2ncnc3c2[C@H](C)SC3)CC1 | 65

Tested on: PC-3
Assay: Antitumor activity against human PC3 prostate tumor cell xenografted in nude mouse assessed as inhibition of tumor growth at 25 mg/kg, po qd for 14 days
Assay type: functional
Design: scale not given: the % may be the effect or the level left
Settings: not given

Row | SMILES | Activity [%]
47 | CC(C)NC[C@H](Cc1ccc(Cl)cc1)C(=O)N1CCN(c2ncnc3c2[C@H](C)SC3)CC1 | 15

Tested on: PC-3
Assay: Antitumor activity against human PC3 prostate tumor cell xenografted in nude mouse assessed as inhibition of tumor growth at 50 mg/kg, po qd for 14 days
Assay type: functional
Design: scale not given: the % may be the effect or the level left
Settings: not given

Row | SMILES | Activity [%]
48 | CC(C)NC[C@H](Cc1ccc(Cl)cc1)C(=O)N1CCN(c2ncnc3c2[C@H](C)SC3)CC1 | 42

Tested on: PC-3
Assay: Antitumor activity against human PC3 prostate tumor cell xenografted in nude mouse assessed as inhibition of tumor growth at 100 mg/kg, po qd for 14 days
Assay type: functional
Settings: PC-3, 336 h

Row | SMILES | inhibition in vivo at 100 mg/kg [%]
49 | CC(C)NC[C@H](Cc1ccc(Cl)cc1)C(=O)N1CCN(c2ncnc3c2[C@H](C)SC3)CC1 | 61

Tested on: PC-3
Assay: Antitumor activity against human PC3 prostate tumor cell xenografted in nude mouse assessed as inhibition of tumor growth at 200 mg/kg, po qd for 14 days
Assay type: functional
Design: scale not given: the % may be the effect or the level left
Settings: not given

Row | SMILES | Activity [%]
50 | CC(C)NC[C@H](Cc1ccc(Cl)cc1)C(=O)N1CCN(c2ncnc3c2[C@H](C)SC3)CC1 | 84

Tested on: not listed separately
Assay: Ratio of IC50 for Akt1 to IC50 for Akt2
Settings: not given

Row | Ratio IC50 | SMILES
51 | 5 | CC(C)NCC(C(=O)N1CCN(c2ncnc3c2C(C)SC3)CC1)c1ccc(Cl)cc1 (centres undefined)

Tested on: not listed separately
Assay: Ratio of IC50 for Akt1 to IC50 for Akt3
Settings: not given

Row | Ratio IC50 | SMILES
52 | 3 | CC(C)NCC(C(=O)N1CCN(c2ncnc3c2C(C)OC3)CC1)c1ccc(Cl)cc1 (centres undefined)

Tested on: Plasma
Assay: Increase in plasma drug level in nude mouse xenografted with human U87 cells at 50 to 100 mg/kg, po after 4 hrs
Assay type: ADME, organism-based, U-87MG ATCC
Design: dose 50-100 mg/kg, route oral
Settings: in vivo

Row | Activity | SMILES
53 | Active | CC(C)NC[C@H](Cc1ccc(Cl)cc1)C(=O)N1CCN(c2ncnc3c2[C@H](C)SC3)CC1

Tested on: Plasma
Assay: Increase in plasma drug level in nude mouse xenografted with human U87 cells at 200 mg/kg, po after 4 hrs
Assay type: ADME, organism-based, U-87MG ATCC
Design: dose 200 mg/kg, route oral
Settings: in vivo

Row | Activity | SMILES
54 | Active | CC(C)NC[C@H](Cc1ccc(Cl)cc1)C(=O)N1CCN(c2ncnc3c2[C@H](C)SC3)CC1
